Test results taken from BigSolDB 2.1.

NC(N)=S
Details | solubility (mole fraction)
in ethanol, 292.65 K | 0.0224
in ethanol, 293.85 K | 0.0227
in ethanol, 299.45 K | 0.0256
in ethanol, 302.75 K | 0.0281
in ethanol, 305.85 K | 0.0295
in ethanol, 308.95 K | 0.0324
in ethanol, 309.4 K | 0.0331
in ethanol, 311.65 K | 0.0345
in ethanol, 312.55 K | 0.035
in ethanol, 312.75 K | 0.0353
in ethanol, 313.9 K | 0.0364
in ethanol, 314.35 K | 0.0375
in ethanol, 315.55 K | 0.0384
in ethanol, 316.4 K | 0.0386
in ethanol, 318.2 K | 0.0399
in ethanol, 320 K | 0.0422
in methanol, 298.65 K | 0.0534
in methanol, 301.45 K | 0.0565
in methanol, 304.35 K | 0.0606
in methanol, 307.85 K | 0.0643
in methanol, 309.05 K | 0.0667
in methanol, 311.25 K | 0.0702
in methanol, 314.55 K | 0.0761
in methanol, 319.45 K | 0.0821
in methanol, 321.25 K | 0.0872
